{"source": "patent US11026945B2", "about": "“Protein kinase RNA-like endoplasmic reticulum kinase (PERK) inhibitors for prevention and/or treatment of lung injury and/or inflammation” (THE TRUSTEES OF THE UNIVERSITY OF PENNSYLVANIA, priority 2016, dated 2021)", "key": {"[1]": {"tested_on": "AEC-I monolayers", "assay": "Cytokine levels in culture supernatant, multiplex bead assay", "format": "cell-based, rat", "settings": "stretched monolayers, PI treatment", "protocol": "Given the interest in cytokines as a biomarker of injury, the contribution of ISR signaling to stretch-induced proinflammatory mediator release was assessed by measuring the level of 26 common cytokines in the culture media in the presence and absence of PI. Generally low cytokine response to stretch was found with modest elevations in IL-18, IL-1α and MIP-1α (FIG. 4A-FIG. 4C). […] (FIG. 4A). To study the regulation of IL-18 by ISR, stretched and unstretched cells were treated with CHOP, ATF4 and PERK siRNA (FIG. 17A-FIG. 17B and FIG. 4D-FIG. 4F). […] Cell culture media IL-18 levels were compared to no siRNA and non-targeting siRNA treatments.\nCulture media of stretched and unstretched AEC-I monolayers was collected at the end of the experiment. N=5 biological monolayer replicates were used per condition. 0.5 ml samples were concentrated to 30 μl using centrifugal filters (Amicon Ultra, EMD Millipore). Levels of 26 common cytokines and chemokines were measured with RECYTMAG-65K MILLIPLEX MAP Rat Cytokine Chemokine Magnetic Bead Panel multiplex bead assay (EMD Millipore Corp., Billerica, Mass.) in triplicates per the manufacturer's protocol. 25 μl samples were used. The following analytes were measured: epidermal growth factor (EGF), eotaxin, macrophage colony stimulating factor […], interleukin (IL)-1α, 2,4,5,6,10,12 (p70), 13, 17A, 18; granulocyte-macrophage colony stimulating factor (GM-CSF), regulated on activation, normal T cell expressed and secreted (RANTES), vascular […] growth factor (VEGF), fractalkine, interferon-γ (INFγ), interferon-γ-inducible protein 10 (IP-10), leptin, tumor necrosis factor-α (TNF-α), keratinocyte chemoattractant (GRO/KC), macrophage inflammatory protein (MIP)-1α and 2, monocyte chemoattractant protein (MCP-1), and LPS-induced chemokine (LIX). Samples were read in triplicates and an averaged value was obtained."}, "[2]": {"tested_on": "tight junction proteins (CLDN4, CLDN18) bound to ZO-1 in AEC-I monolayers", "assay": "Co-immunoprecipitation of tight junction proteins with ZO-1 as bait", "format": "cell-based, rat", "settings": "stretched monolayers (25%, 6 hours), PI pretreatment", "protocol": "The dose of siRNA and PI treatment was selected based on dose-response curves above (FIG. 2A-FIG. 2E). AEC-II transformed to AEC-I cells and formed a complete monolayer by day 4, expressing only AEC-I cell surface markers. On the day of the experiment, the medium was removed and replaced with HEPES-buffered MEM. Cells stretch was performed in a 37° C. incubator. The effect of ISR inhibition or control treatment was compared in the following three conditions (N=5 biological replicates/condition): 1) no stretch (NS) controls; 2) mechanical stretch with 12% surface change (S 12%); and 3) mechanical stretch with 25% surface change (S25%). The cell monolayers were exposed to the above mentioned conditions for 6 hours based on time course of ISR protein expression obtained during preliminary data collection (FIG. 2A-FIG. 2E). All membranes were treated with FITC-labeled streptavidin (Thermo Fisher Scientific) at the end of the experiment and light emission was detected at 488 nm with fluorescent microscopy (Nikon TE300, Melville, N.Y.). In a separate set of experiments (N=30 rats), in which the above mentioned treatment plan and conditions were used, cells were harvested at the end of the experiment by scraping them in RIPA buffer and total protein was extracted (N=3 membranes/treatment group performed for N=5 biological replicates per condition). […]"}, "[3]": {"tested_on": "ISR (p-EIF2α, ATF4, CHOP) in lung tissue", "assay": "Lung tissue ISR western blot in rat VILI model", "format": "in vivo", "protocol": "The right lung was harvested. […] For cytokine analysis serum was used.\nTotal protein from cells and lung tissue were extracted using RIPA lysis buffer. Total protein was quantified with Pierce […] (Thermo Fisher Scientific). Western blotting for phosphorylated (p) and total (t) forms of EIF2α, p- and t-IRE1α, p- and t-PERK, ATF4, CHOP and XBP1 was performed. B-actin was used as loading control (Santa Cruz Biotechnologies, Santa Cruz, Calif.). The following primary antibodies were used: p-EIF2α (Ser 51) and t-EIF2α rabbit monoclonal antibody (Cell Signaling, Danvers, Mass.), p-IRE1α (Ser 724) and t-IRE1α rabbit monoclonal antibody (Abcam, Cambridge, Mass.), ATF4 rabbit polyclonal antibody (Sigma-Aldrich), CHOP (F-168) mouse polyclonal antibody (Santa Cruz), XBP-1 rabbit monoclonal antibody (Abcam) and B-actin mouse polyclonal antibody (Santa Cruz). For immunoprecipitation of PERK, p-PERK (Thr 981) antibody (Santa Cruz) was used and p-PERK (Thr 980) and t-PERK were detected with rabbit monoclonal antibodies (Cell signaling). N=4-8 biological replicates per conditions were used in immunoblot studies. Immunoblots were scanned and bend densities were analyzed using Image J software."}, "[4]": {"settings": "ventilated rats (VPI), 30 mg/kg oral gavage 4 hours before ventilation"}}, "data": [{"smiles": "Cn1cc(-c2ccc3c(c2)CCN3C(=O)Cc2cccc(C(F)(F)F)c2)c2c(N)ncnc21", "note": "[PI, 1-[5-(4-Amino-7-methyl-7H-pyrrolo[2,3-d]pyrimidin-5-yl)indolin-1-yl]-2-(3-trifluoromethylphenyl)ethanone]", "values": [{"measurement": "IL-1α level in supernatant", "setting": "[1]", "value": "did not affect"}, {"measurement": "IL-18 level in supernatant", "setting": "[1]", "value": "decreased"}, {"measurement": "MIP-1α level in supernatant", "setting": "[1]", "value": "did not affect"}, {"measurement": "dissociation of CLDN 4 from ZO-1", "setting": "[2]", "value": "prevented"}, {"measurement": "dissociation of CLDN 18 from ZO-1", "setting": "[2]", "value": "prevented"}, {"measurement": "p-EIF2α, ATF4 and CHOP in lung tissue", "setting": "[3]; spontaneously breathing controls (CPI), 30 mg/kg oral gavage", "value": "did not affect"}, {"measurement": "VILI-mediated phosphorylation of EIF2α in lung tissue", "setting": "[3]; [4]", "value": "significantly reduced"}, {"measurement": "protein expression of ATF4 in lung tissue", "setting": "[3]; [4]", "value": "significantly reduced"}, {"measurement": "protein expression of CHOP in lung tissue", "setting": "[3]; [4]", "value": "significantly reduced"}]}]}
